These results are taken from patent US8129371B2, “Thienopyrimidine and pyrazolopyrimidine compounds and their use as mTOR kinase and PI3 kinase inhibitors” (Wyeth LLC, priority 2007, dated 2012).

pIC50: −log10 of the molar value. Like-named read-outs stand apart in the source and are kept apart here.

One test has as its system breast line MDA468. Nature of the test: In vitro cell culture growth assay (MTS), MDA468. Format: cell-based. To be noted: Homo sapiens, 72 h, MDA468 cells, three days after drug treatment. Summed up:
(§1)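 Viable cell density is assessed three days after inhibitor addition via MTS conversion, normalised to vehicle-treated cells.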

The test system of a further test is prostate line LNCap. Put plainly: In vitro cell culture growth assay (MTS), LNCap. Format: cell-based. To be noted: Homo sapiens, LNCaP, 72 h, LNCap cells, three days after drug treatment. In outline: as §1
Test [1] deals with T1, PI3K (Homo sapiens, UniProt P42336).
T1 construct: PI3 Kinase α IC50; other: PI3 Kinase α; other: PI3 Kinase α isoform, fluorescence polarization
T1 sequence (P42336 whole entry, canonical isoform): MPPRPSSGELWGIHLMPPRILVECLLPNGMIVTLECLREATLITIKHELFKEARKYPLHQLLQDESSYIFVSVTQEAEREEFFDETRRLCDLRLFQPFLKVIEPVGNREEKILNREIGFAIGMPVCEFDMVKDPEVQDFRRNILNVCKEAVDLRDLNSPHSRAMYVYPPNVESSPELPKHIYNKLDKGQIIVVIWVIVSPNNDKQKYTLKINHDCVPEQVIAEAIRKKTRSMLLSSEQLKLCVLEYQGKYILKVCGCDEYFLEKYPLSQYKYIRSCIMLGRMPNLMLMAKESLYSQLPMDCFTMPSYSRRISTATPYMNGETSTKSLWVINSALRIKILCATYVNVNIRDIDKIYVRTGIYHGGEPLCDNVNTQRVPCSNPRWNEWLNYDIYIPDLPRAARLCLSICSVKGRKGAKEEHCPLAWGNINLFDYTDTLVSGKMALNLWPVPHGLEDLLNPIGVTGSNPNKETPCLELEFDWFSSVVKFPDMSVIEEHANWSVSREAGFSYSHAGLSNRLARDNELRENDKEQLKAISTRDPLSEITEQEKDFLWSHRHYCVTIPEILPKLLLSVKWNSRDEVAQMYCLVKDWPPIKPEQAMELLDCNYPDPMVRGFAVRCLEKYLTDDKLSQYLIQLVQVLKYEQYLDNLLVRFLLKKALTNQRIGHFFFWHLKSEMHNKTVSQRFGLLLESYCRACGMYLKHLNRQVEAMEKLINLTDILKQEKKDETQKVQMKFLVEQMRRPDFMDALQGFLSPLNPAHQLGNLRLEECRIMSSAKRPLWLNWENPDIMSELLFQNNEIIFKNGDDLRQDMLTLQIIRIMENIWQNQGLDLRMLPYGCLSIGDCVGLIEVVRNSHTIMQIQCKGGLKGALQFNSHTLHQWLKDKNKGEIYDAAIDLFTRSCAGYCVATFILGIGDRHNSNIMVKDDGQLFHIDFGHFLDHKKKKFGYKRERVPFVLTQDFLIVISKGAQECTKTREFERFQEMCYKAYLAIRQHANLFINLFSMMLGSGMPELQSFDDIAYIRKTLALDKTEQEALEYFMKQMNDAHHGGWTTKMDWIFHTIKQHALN
Put plainly: Fluorescence polarization assay for PI3K. Format: biochemical. To be noted: read-out: PI3 Kinase α IC50. Summed up:
(§2)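 Fluorescence-polarization competition readout: after 30–60 min of PIP2/ATP turnover in 1% DMSO, a stop mix with GST-GRP (70 nM) and red probe (10 nM) was added.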
In general terms: Fluorescence polarisation rises when a labelled molecule tumbles more slowly, as on binding a larger partner.

The target in test [2] is T2, PI3K (Homo sapiens, UniProt P48736).
T2 construct: PI3 Kinase γ IC50; other: PI3 Kinase γ; other: PI3 Kinase γ isoform, fluorescence polarization
T2 sequence (P48736 whole entry, canonical isoform): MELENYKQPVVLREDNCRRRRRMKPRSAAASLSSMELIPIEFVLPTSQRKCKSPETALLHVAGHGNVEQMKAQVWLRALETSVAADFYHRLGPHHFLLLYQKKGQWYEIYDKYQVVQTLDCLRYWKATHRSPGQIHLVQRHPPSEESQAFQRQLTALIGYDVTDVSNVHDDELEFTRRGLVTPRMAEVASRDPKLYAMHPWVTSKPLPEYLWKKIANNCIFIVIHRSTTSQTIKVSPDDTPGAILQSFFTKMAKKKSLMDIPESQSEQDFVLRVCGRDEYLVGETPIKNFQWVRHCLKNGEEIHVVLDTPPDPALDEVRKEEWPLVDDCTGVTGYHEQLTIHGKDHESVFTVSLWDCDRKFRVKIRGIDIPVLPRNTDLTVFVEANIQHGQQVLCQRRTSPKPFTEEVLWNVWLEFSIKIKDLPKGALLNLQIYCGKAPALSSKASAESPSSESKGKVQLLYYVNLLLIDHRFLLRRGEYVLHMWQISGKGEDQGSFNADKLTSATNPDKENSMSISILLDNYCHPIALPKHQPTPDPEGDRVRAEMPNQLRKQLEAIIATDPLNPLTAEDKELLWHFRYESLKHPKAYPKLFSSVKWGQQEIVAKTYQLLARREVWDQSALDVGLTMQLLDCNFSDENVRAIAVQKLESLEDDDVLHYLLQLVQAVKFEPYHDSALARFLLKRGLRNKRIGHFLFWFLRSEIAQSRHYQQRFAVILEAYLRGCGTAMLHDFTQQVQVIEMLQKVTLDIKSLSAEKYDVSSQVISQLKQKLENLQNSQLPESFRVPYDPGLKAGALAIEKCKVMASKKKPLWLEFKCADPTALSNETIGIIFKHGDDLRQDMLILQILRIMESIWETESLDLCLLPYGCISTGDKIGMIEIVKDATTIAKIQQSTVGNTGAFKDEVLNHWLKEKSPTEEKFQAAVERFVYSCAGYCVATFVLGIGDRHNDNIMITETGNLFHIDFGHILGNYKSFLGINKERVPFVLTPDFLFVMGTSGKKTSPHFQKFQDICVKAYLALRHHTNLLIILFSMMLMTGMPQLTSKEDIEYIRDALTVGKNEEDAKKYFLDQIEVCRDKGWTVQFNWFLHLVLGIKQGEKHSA
Put plainly: Fluorescence polarization assay for PI3K. It is filed as biochemical. As to conditions: read-out: PI3 Kinase γ IC50. In outline:
as §2

The target in the next test is T3, Human mTOR (FLAG-TOR) (Homo sapiens, UniProt P42345).
T3 construct: FLAG
Put plainly: Human mTOR kinase assay with purified enzyme, DELFIA format. It is filed as biochemical. Summed up:
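DELFIA readout: Eu-anti-P(T389)-S6K antibody (40 ng/mL, 1 h) on captured His6-S6K from the stopped reaction. Kinase step used purified FLAG-tagged human mTOR with test compound in HEPES (pH 7.4)/MnCl2/DTT buffer, 2 h at room temperature (linear 1–6 h), terminated by EDTA/EGTA.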

The mark [3] stands for this setting: PI3 Kinase α isoform, fluorescence polarization.
Where [4] appears, read: PI3 Kinase γ isoform, fluorescence polarization.
Where [5] appears, read: purified human mTOR enzyme, DELFIA format.

Consider `COC(=O)Nc1ccc(-c2nc(N3CC4CCC(C3)O4)c3cnn(C4CCN(C(=O)OC(C)C)CC4)c3n2)cc1` [Example 74, isopropyl 4-[6-{4-[(methoxycarbonyl)amino]phenyl}-4-(8-oxa-3-azabicyclo[3.2.1]oct-3-yl)-1H-pyrazolo[3,4-d]pyrimidin-1-yl]piperidine-1-carboxylate], for which the pIC50 with breast line MDA468 is 5.22; with prostate line LNCap it was 6.70; on PI3K [1] (PI3 Kinase α), 5.35; at PI3K [2] (PI3 Kinase γ), 5.02; at Human mTOR (FLAG-TOR) it was 8.35.

Regarding `CCOC(=O)N1CCC(n2ncc3c(N4CC5CCC(C4)O5)nc(-c4ccc(NC(=O)NCCF)cc4)nc32)CC1` [Example 32, ethyl 4-[6-(4-{[(2-fluoroethyl)carbamoyl]amino}phenyl)-4-(8-oxa-3-azabicyclo[3.2.1]oct-3-yl)-1H-pyrazolo[3,4-d]pyrimidin-1-yl]piperidine-1-carboxylate], the pIC50 in the test with breast line MDA468 was 6.68; with prostate line LNCap, 8.05; at PI3K [1] (PI3 Kinase α), 5.48; at PI3K [2] (PI3 Kinase γ), 5.02; against Human mTOR (FLAG-TOR), 9.48.

As to `CNC(=O)Nc1ccc(-c2nc(N3CC4CCC(C3)O4)c3cnn([C@H]4CC[C@@H](O)CC4)c3n2)cc1` (relative stereo) [Example 381, 1-{4-[1-(cis-4-hydroxycyclohexyl)-4-(8-oxa-3-azabicyclo[3.2.1]oct-3-yl)-1H-pyrazolo[3,4-d]pyrimidin-6-yl]phenyl}-3-methylurea], the pIC50 in the test on breast line MDA468 is 7.29; in the test on prostate line LNCap it was 7.70; on PI3K [1] (setting [3]), 6.64; on PI3K [2] (setting [4]) it was below 5.00; against Human mTOR (FLAG-TOR) (setting [5]), 9.52.

Regarding `Cn1ncc2c(N3CC4CCC(C3)O4)nc(-c3ccc(NC(=O)Nc4ccc(CCO)cc4)cc3)nc21` [Example 232, 1-[4-(2-hydroxyethyl)phenyl]-3-{4-[1-methyl-4-(8-oxa-3-azabicyclo[3.2.1]oct-3-yl)-1H-pyrazolo[3,4-d]pyrimidin-6-yl]phenyl}urea], the pIC50 was 8.70 in the test with breast line MDA468; above 9.00 with prostate line LNCap; 7.22 at PI3K [1] (PI3 Kinase α); 6.28 at PI3K [2] (PI3 Kinase γ); 9.98 on Human mTOR (FLAG-TOR).

In the case of `CCn1ncc2c(N3CC4CCC(C3)O4)nc(-c3ccc(NC(=O)Nc4ccc(N5CCCC5)cc4)cc3)nc21` [Example 280, 1-{4-[1-ethyl-4-(8-oxa-3-azabicyclo[3.2.1]oct-3-yl)-1H-pyrazolo[3,4-d]pyrimidin-6-yl]phenyl}-3-(4-pyrrolidin-1-ylphenyl)urea], the pIC50 with breast line MDA468 was 6.92; with prostate line LNCap, 7.26; on PI3K [1] (PI3 Kinase α), 5.84; on PI3K [2] (PI3 Kinase γ), 5.09; against Human mTOR (FLAG-TOR) it was 8.22.

On to `CN(C)CCn1ncc2c(N3CC4CCC(C3)O4)nc(-c3ccc(NC(=O)NC4CC4)cc3)nc21` [Example 161, 1-cyclopropyl-3-(4-{1-[2-(dimethylamino)ethyl]-4-(8-oxa-3-azabicyclo[3.2.1]oct-3-yl)-1H-pyrazolo[3,4-d]pyrimidin-6-yl}phenyl)urea], for which the pIC50 was 5.66 in the test with breast line MDA468; 6.68 with prostate line LNCap; 5.44 at PI3K [1] (PI3 Kinase α); below 5.00 at PI3K [2] (PI3 Kinase γ); 8.08 at Human mTOR (FLAG-TOR).

For the molecule `O=C(Nc1ccc(-c2nc(N3C[C@@H]4C[C@H]3CO4)c3cnn(CC(F)(F)F)c3n2)cc1)OCCO` [Example 291, 2-hydroxyethyl (4-{4-[(1S,4S)-2-oxa-5-azabicyclo[2.2.1]hept-5-yl]-1-(2,2,2-trifluoroethyl)-1H-pyrazolo[3,4-d]pyrimidin-6-yl}phenyl)carbamate], the pIC50 in the test with breast line MDA468 was 6.52; in the test on prostate line LNCap it was 6.77; at PI3K [1] (PI3 Kinase α) it was 5.21; on PI3K [2] (PI3 Kinase γ), below 5.00; against Human mTOR (FLAG-TOR), 8.05.

Consider `CC(C)C(=O)N1CCC(n2ncc3c(N4CC5CCC(C4)O5)nc(-c4ccc(NC(=O)NCCO)cc4)nc32)CC1` [Example 84, 1-(2-hydroxyethyl)-3-{4-[1-(1-isobutyrylpiperidin-4-yl)-4-(8-oxa-3-azabicyclo[3.2.1]oct-3-yl)-1H-pyrazolo[3,4-d]pyrimidin-6-yl]phenyl}urea], for which the pIC50 is 5.92 in the test with breast line MDA468; 6.00 in the test on prostate line LNCap; 5.70 on PI3K [1] (PI3 Kinase α); below 5.00 on PI3K [2] (PI3 Kinase γ); 9.25 at Human mTOR (FLAG-TOR).

Take `COC(=O)N1CCC(n2ncc3c(N4CC5CCC(C4)O5)nc(-c4ccc(NC(=O)Nc5ccc(N6CCN(C)CC6)cc5)cc4)nc32)CC1` [Example 166, methyl 4-{6-[4-({[4-(4-methylpiperazin-1-yl)phenyl]carbamoyl}amino)phenyl]-4-(8-oxa-3-azabicyclo[3.2.1]oct-3-yl)-1H-pyrazolo[3,4-d]pyrimidin-1-yl}piperidine-1-carboxylate]: the pIC50 in the test with breast line MDA468 is 8.70; in the test on prostate line LNCap it was above 9.00; at PI3K [1] (PI3 Kinase α), 6.93; at PI3K [2] (PI3 Kinase γ) it was 6.06; against Human mTOR (FLAG-TOR), 9.32.

In the case of `CCOC(=O)N1CCC(n2ncc3c(N4CC5CCC(C4)O5)nc(-c4ccc(NC(=O)Nc5ccn[nH]5)cc4)nc32)CC1` [Example 39, ethyl 4-[4-(8-oxa-3-azabicyclo[3.2.1]oct-3-yl)-6-{4-[(1H-pyrazol-5-ylcarbamoyl)amino]phenyl}-1H-pyrazolo[3,4-d]pyrimidin-1-yl]piperidine-1-carboxylate], the pIC50 in the test on breast line MDA468 is 5.10; in the test with prostate line LNCap, 5.59; on PI3K [1] (PI3 Kinase α), 5.24; at PI3K [2] (PI3 Kinase γ) it was 5.05; on Human mTOR (FLAG-TOR), 7.02.

`O=C(NCCO)Nc1ccc(-c2nc(N3CC4CCC(C3)O4)c3cnn(C4CCC5(CC4)OCCO5)c3n2)cc1` [Example 125, 1-{4-[1-(1,4-dioxaspiro[4.5]dec-8-yl)-4-(8-oxa-3-azabicyclo[3.2.1]oct-3-yl)-1H-pyrazolo[3,4-d]pyrimidin-6-yl]phenyl}-3-(2-hydroxyethyl)urea]: the pIC50 with breast line MDA468 was 7.40; with prostate line LNCap, 8.10; on PI3K [1] (PI3 Kinase α), 5.87; on PI3K [2] (PI3 Kinase γ), below 5.00; against Human mTOR (FLAG-TOR) it was 9.63.

On to `O=C(Nc1ccc(CCO)cc1)Nc1ccc(-c2nc(N3C[C@@H]4C[C@H]3CO4)c3cnn(CC(F)(F)F)c3n2)cc1` [Example 297, 1-[4-(2-hydroxyethyl)phenyl]-3-(4-{4-[(1S,4S)-2-oxa-5-azabicyclo[2.2.1]hept-5-yl]-1-(2,2,2-trifluoroethyl)-1H-pyrazolo[3,4-d]pyrimidin-6-yl}phenyl)urea], for which the pIC50 is 8.40 in the test on breast line MDA468; above 9.00 in the test with prostate line LNCap; 6.56 on PI3K [1] (setting [3]); 5.45 at PI3K [2] (setting [4]); 9.26 against Human mTOR (FLAG-TOR) (setting [5]).

On to `CC(C)C(=O)N1CCC(n2ncc3c(N4CC5CCC(C4)O5)nc(-c4ccc(NC(=O)Nc5ccccc5)cc4)nc32)CC1` [Example 87, 1-{4-[1-(1-isobutyrylpiperidin-4-yl)-4-(8-oxa-3-azabicyclo[3.2.1]oct-3-yl)-1H-pyrazolo[3,4-d]pyrimidin-6-yl]phenyl}-3-phenylurea], for which the pIC50 is 6.92 in the test with breast line MDA468; 7.52 with prostate line LNCap; 6.40 at PI3K [1] (PI3 Kinase α); 5.15 at PI3K [2] (PI3 Kinase γ); 9.10 against Human mTOR (FLAG-TOR).

`O=C1CCC(n2ncc3c(N4CC5CCC(C4)O5)nc(-c4ccc(NC(=O)NC5CC5)cc4)nc32)CC1` [Example 401, 1-cyclopropyl-3-{4-[4-(8-oxa-3-azabicyclo[3.2.1]oct-3-yl)-1-(4-oxocyclohexyl)-1H-pyrazolo[3,4-d]pyrimidin-6-yl]phenyl}urea]: the pIC50 in the test with breast line MDA468 is 8.00; in the test on prostate line LNCap, 9.00; at PI3K [1] (setting [3]) it was 5.67; on PI3K [2] (setting [4]), below 5.00; against Human mTOR (FLAG-TOR) (setting [5]), 9.35.

`CN1CCN(C2CCC(n3ncc4c(N5CC6CCC(C5)O6)nc(-c5ccc(NC(=O)NC6CC6)cc5)nc43)CC2)CC1` (stereo not shown) [Example 372, 1-cyclopropyl-3-(4-{1-[4-(4-methylpiperazin-1-yl)cyclohexyl]-4-(8-oxa-3-azabicyclo[3.2.1]oct-3-yl)-1H-pyrazolo[3,4-d]pyrimidin-6-yl}phenyl)urea]: the pIC50 is 6.38 with breast line MDA468; 6.96 in the test with prostate line LNCap; 5.53 at PI3K [1] (setting [3]); 5.27 on PI3K [2] (setting [4]); 9.40 against Human mTOR (FLAG-TOR) (setting [5]).

In the case of `CN1CCN(c2ccc(NC(=O)Nc3ccc(-c4nc(N5CC6CCC(C5)O6)c5cnn(C)c5n4)cc3)cc2)CC1` [Example 236, 1-{4-[1-methyl-4-(8-oxa-3-azabicyclo[3.2.1]oct-3-yl)-1H-pyrazolo[3,4-d]pyrimidin-6-yl]phenyl}-3-[4-(4-methylpiperazin-1-yl)phenyl]urea], the pIC50 in the test with breast line MDA468 was 7.37; with prostate line LNCap, 8.40; at PI3K [1] (PI3 Kinase α), 7.15; at PI3K [2] (PI3 Kinase γ) it was 6.59; on Human mTOR (FLAG-TOR) it was 9.35.

`O=C(Nc1ccc(-c2nc(N3CC4CCC(C3)O4)c3cnn(C4CCC5(CCCO5)CC4)c3n2)cc1)Nc1ccc(N2CCNCC2)cc1` (single isomer, unassigned) [Example 314, 1-(4-{4-(8-oxa-3-azabicyclo[3.2.1]oct-3-yl)-1-[(5r,8r)-1-oxaspiro[4.5]dec-8-yl]-1H-pyrazolo[3,4-d]pyrimidin-6-yl}phenyl)-3-(4-piperazin-1-ylphenyl)urea]: the pIC50 was 7.82 in the test with breast line MDA468; 9.00 with prostate line LNCap; 6.29 at PI3K [1] (setting [3]); 5.70 at PI3K [2] (setting [4]); 9.34 on Human mTOR (FLAG-TOR) (setting [5]).

The term pIC50 denotes the IC50 on a negative log10 scale, so that one unit is a factor of ten.
